Patent US11306063B2, “Heterocyclic naphthoquinones derivatives for use in the treatment of cancers including Cushing disease” (Commissariat a l'Energie Atomique et aux Energies …, priority 2016, dated 2022)
pIC50: −log10 of the molar value. Read-outs that look alike come from different tables or passages of the source.

Columns and labels:
Assay type in all cases: biochemical
[1] = target: T1, USP2 full length (USP2^FL) (Homo sapiens, UniProt O75604); experiment: Inhibition of Ub-AMC hydrolysis by USP2 full length; details: Ub-AMC at 1 μM, Table 1a; for inhibition at 1 µM: 1 μM compound; for inhibition at 5 µM: 5 μM compound; for inhibition at 25 µM: 25 μM compound; for inhibition at 50 µM: 50 μM compound
T1 construct: purchased BioSciences 80352
T1 sequence (O75604 1-605): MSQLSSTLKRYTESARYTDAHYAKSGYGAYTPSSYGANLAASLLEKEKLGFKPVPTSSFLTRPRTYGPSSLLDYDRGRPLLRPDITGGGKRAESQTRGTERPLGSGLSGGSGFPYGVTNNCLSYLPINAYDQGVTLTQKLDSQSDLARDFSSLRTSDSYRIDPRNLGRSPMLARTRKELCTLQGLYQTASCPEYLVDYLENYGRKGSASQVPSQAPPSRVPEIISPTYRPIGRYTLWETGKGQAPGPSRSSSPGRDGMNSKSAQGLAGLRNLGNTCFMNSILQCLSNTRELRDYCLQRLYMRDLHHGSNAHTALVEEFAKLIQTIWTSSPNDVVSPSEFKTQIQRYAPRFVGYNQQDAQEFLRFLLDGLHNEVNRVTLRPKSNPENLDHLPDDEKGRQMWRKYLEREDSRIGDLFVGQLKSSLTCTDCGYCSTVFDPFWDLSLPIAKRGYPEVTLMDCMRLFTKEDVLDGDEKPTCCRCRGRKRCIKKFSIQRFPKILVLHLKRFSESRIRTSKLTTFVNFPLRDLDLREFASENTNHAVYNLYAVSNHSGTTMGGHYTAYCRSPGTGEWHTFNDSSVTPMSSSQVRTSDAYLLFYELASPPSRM
Description: (§1) Enzymatic assay was performed in a HEPES buffer (50 mM pH7.6 1 mM DTT, 2% glycerol, 0.5 mM EDTA) or in a Tris buffer (40 mM pH7.4 1 mM DTT, 5% glycerol, 0.05 mg/ml BSA) respectively, following manufacturer's instructions. Compounds were added to the reaction mixture just prior to the substrate. The enzymatic reaction kinetics was monitored through the apparition of fluorescence due to the hydrolysis of the peptidyl Ub-AMC or Ub-Rho bound over 20 or 30 minutes.

[2] = target: T2, USP8^CD (purified catalytic domain of USP8) (Homo sapiens, UniProt P40818); experiment: Inhibition of purified USP8^CD enzymatic activity (Ub-AMC or Ub-Rho substrate); details: for inhibition at 1 µM: 1 μM compound; for inhibition at 0.01 µM: 0.01 μM compound; for inhibition at 0.05 µM: 0.05 μM compound; for inhibition at 10 µM: 10 μM compound; for pIC50: read-out: IC50 USP8 CD
T2 construct: the purified catalytic domain of USP8 (USP8^CD, in-house purified); made in house; host or cells: E. coli BL21 Gold
T2 sequence (P40818 777-1109 limits assumed): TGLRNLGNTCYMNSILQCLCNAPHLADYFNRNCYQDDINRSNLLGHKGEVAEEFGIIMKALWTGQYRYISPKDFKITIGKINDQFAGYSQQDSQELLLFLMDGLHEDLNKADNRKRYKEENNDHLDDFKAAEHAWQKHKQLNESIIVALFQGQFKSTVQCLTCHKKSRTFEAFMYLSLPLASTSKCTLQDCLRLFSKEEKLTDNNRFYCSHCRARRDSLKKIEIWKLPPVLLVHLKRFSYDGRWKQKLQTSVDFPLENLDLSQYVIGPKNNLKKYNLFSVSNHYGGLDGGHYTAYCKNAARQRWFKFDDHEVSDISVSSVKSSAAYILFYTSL
Description: (§2) USP2CD or USP8CD were expressed in E. coli BL21 Gold. Cells were grown in LB Miller to mid-log phase and induced by addition of 0.5 mM IPTG for USP2CD for 5 h at 20° C., while 1 mM IPTG was added for USP8CD for 3 h at 37° C. Then, cells were harvested and frozen at −80° C.
For His-tagged USP8CD, cells were resuspended in buffer A (50 mM TRIS pH 8.0, 500 mM NaCl, 2 mM Imidazole) and lysed using a sonicator. The lysate was clarified by centrifugation and applied to Ni Sepharose6 Fast Flow resin (GE Healthcare). The resin was sequentially washed first with buffer A containing 10 mM Imidazole then with buffer A containing 20 mM Imidazole, and finally with buffer A containing 50 mM Imidazole. Protein sample was eluted from the resin using buffer A containing 300 mM Imidazole. The eluted protein was buffer exchanged by gel-filtration on a Superdex 200 10/300 GL column (GE Healthcare) equilibrated in Buffer B (20 mM HEPES pH 7.5, 300 mM NaCl, 2 mM dithiothreitol (DTT)).
as §1
(§3) Medium value out of duplicates is reported.

[3] = target: T3, USP2^CD (purified catalytic domain of USP2) (Homo sapiens, UniProt O75604); experiment: Inhibition of purified USP2^CD enzymatic activity (Ub-AMC or Ub-Rho substrate); details: for inhibition at 0.01 µM: 0.01 μM compound; for inhibition at 0.05 µM: 0.05 μM compound; for inhibition at 0.1 µM: 0.1 μM compound; for inhibition at 0.5 µM: 0.5 μM compound; for inhibition at 1 µM: 1 μM compound; for inhibition at 5 µM: 5 μM compound; for inhibition at 10 µM: 10 μM compound; for inhibition at 25 µM: 25 μM compound; for inhibition at 50 µM: 50 μM compound; for pIC50: read-out: IC50 USP2 CD
T3 construct: The purified catalytic domain of USP2 (USP2^CD, in-house purified); His; made in house; host or cells: E. coli BL21 Gold
T3 sequence (O75604 267-599 limits assumed): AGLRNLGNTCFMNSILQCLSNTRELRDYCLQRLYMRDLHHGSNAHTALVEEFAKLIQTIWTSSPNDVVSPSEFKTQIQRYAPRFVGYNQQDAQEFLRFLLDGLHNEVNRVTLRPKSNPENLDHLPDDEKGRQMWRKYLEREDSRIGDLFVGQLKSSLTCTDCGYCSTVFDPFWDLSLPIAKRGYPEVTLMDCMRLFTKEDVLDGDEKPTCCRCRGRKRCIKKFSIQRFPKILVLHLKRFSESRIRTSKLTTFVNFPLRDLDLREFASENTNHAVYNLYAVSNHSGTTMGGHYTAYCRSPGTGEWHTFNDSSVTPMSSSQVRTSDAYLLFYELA
Description: as §2
For His-tagged USP2CD, cells were resuspended in buffer C (10 mM TRIS pH 8.0, 100 mM NaCl, 10 mM Imidazole) and lysed using a sonicator. The lysate was clarified by centrifugation and applied to Ni Sepharose6 Fast Flow resin (GE Healthcare). The resin was sequentially washed with buffer C, then with buffer C containing 50 mM Imidazole. Protein sample was eluted from the resin using buffer C containing 250 mM Imidazole. The eluted protein was buffer exchanged by gel-filtration on a Superdex 200 10/300 GL column (GE Healthcare) equilibrated in Buffer D (15 mM Bis-TRIS pH 6.0, 100 mM NaCl, 1 mM dithiothreitol (DTT)).
as §1, §3

[4] = 5 μM compound, Ub-AMC at 1 μM, Table 1a
[5] = 25 μM compound, Ub-AMC at 1 μM, Table 1a
[6] = 50 μM compound, Ub-AMC at 1 μM, Table 1a
[7] = 0.1 μM compound, Ub-AMC at 1 μM, Table 1a
[8] = 0.5 μM compound, Ub-AMC at 1 μM, Table 1a
[9] = Ub-AMC substrate at 1 μM, Table 2b
[10] = Ub-Rhodamine substrate at 0.1 μM, Table 2c

SMILES | inhibition at 1 µM [1] | inhibition at 5 µM [1] | inhibition at 25 µM [1] | inhibition at 50 µM [1] | USP8^CD % inhibition [2, 6] | inhibition at 0.01 µM ([3]; Table 1c) | inhibition at 0.05 µM ([3]; Table 1c) | inhibition at 0.1 µM ([3]; Table 1c) | inhibition at 0.5 µM ([3]; Table 1c) | inhibition at 1 µM ([3]; Table 1b) | inhibition at 1 µM ([3]; Table 1c) | inhibition at 5 µM ([3]; Table 1b) | inhibition at 5 µM ([3]; Table 1c) | inhibition at 10 µM ([3]; Table 1c) | inhibition at 25 µM ([3]; Table 1b) | inhibition at 50 µM ([3]; Table 1b) | pIC50 [3, 9] | inhibition at 0.01 µM ([2]; Table 1d) | inhibition at 0.05 µM ([2]; Table 1d) | inhibition at 0.1 µM ([2]; 0.1 μM compound, Table 1d) | other results
O=C1c2ccccc2C(=O)c2nc(C=C3CCCC3)c(C=C3CCCC3)nc21 [PCR8153] | 8% | 54% | 98% | 98% | 100% | – | – | – | – | – | – | – | – | – | – | – | – | – | – | – | inhibition at 1 µM ([2]; Ub-AMC at 1 μM, Table 1a): 0%; USP8^CD % inhibition [2, 4]: 22%; USP8^CD % inhibition [2, 5]: 100%
O=C1c2ccccc2C(=O)c2nc(CS(=O)(=O)c3ccccc3)c(CS(=O)(=O)c3ccccc3)nc21 [PCR7986] | 46% | 74% | 78% | 92% | 36% | – | – | – | – | – | – | – | – | – | – | – | – | – | – | – | USP8^CD % inhibition [2, 7]: 1%; USP8^CD % inhibition [2, 8]: 13%
O=C1c2ccccc2C(=O)c2nc(CS(=O)(=O)c3ccc(F)c(F)c3F)c(CS(=O)(=O)c3ccc(F)c(F)c3F)nc21 [OVM23] | – | – | – | – | – | -20% | -26% | -22% | 16% | 69% | 18% | 53% | -1% | 4% | 94% | 97% | < 5.00 | -5% | 12% | 24% | inhibition at 0.5 µM ([2]; 0.5 μM compound, Table 1d): 20%; inhibition at 1 µM ([2]; Table 1b): 83%; inhibition at 1 µM ([2]; Table 1d): 34%; inhibition at 5 µM ([2]; 5 μM compound, Table 1b): 92%; inhibition at 5 µM ([2]; 5 μM compound, Table 1d): 74%; inhibition at 10 µM ([2]; Table 1d): 80%; inhibition at 25 µM ([2]; 25 μM compound, Table 1b): 100%; inhibition at 50 µM ([2]; 50 μM compound, Table 1b): 103%; pIC50 [2, 9]: 5.66

Now from value to compound, other results behind:

inhibition at 1 µM [1] | inhibition at 5 µM [1] | inhibition at 25 µM [1] | inhibition at 50 µM [1] | USP8^CD % inhibition [2, 6] | inhibition at 0.01 µM ([3]; Table 1c) | inhibition at 0.05 µM ([3]; Table 1c) | inhibition at 0.1 µM ([3]; Table 1c) | inhibition at 0.5 µM ([3]; Table 1c) | inhibition at 1 µM ([3]; Table 1b) | inhibition at 1 µM ([3]; Table 1c) | inhibition at 5 µM ([3]; Table 1b) | inhibition at 5 µM ([3]; Table 1c) | inhibition at 10 µM ([3]; Table 1c) | inhibition at 25 µM ([3]; Table 1b) | inhibition at 50 µM ([3]; Table 1b) | pIC50 [3, 9] | inhibition at 0.01 µM ([2]; Table 1d) | inhibition at 0.05 µM ([2]; Table 1d) | inhibition at 0.1 µM ([2]; 0.1 μM compound, Table 1d) | SMILES | other results
0% | 22% | 70% | 99% | 100% | – | – | – | – | – | – | – | – | – | – | – | – | – | – | – | O=C1c2ccccc2C(=O)c2nc(CS(=O)(=O)c3cccs3)c(CS(=O)(=O)c3cccs3)nc21 [PCR7997] | USP8^CD % inhibition [2, 7]: 17%; USP8^CD % inhibition [2, 8]: 3%; inhibition at 1 µM ([2]; Ub-AMC at 1 μM, Table 1a): 13%; USP8^CD % inhibition [2, 4]: 61%; USP8^CD % inhibition [2, 5]: 97%
– | – | – | – | – | 17% | -7% | 4% | 6% | 23% | 57% | 66% | 19% | 56% | 95% | 97% | < 5.00 | 27% | 14% | 30% | CS(=O)(=O)Cc1nc2c(nc1CS(C)(=O)=O)C(=O)c1ccccc1C2=O [VIN6076] | pIC50 [3, 10]: 6.19; inhibition at 0.5 µM ([2]; 0.5 μM compound, Table 1d): 47%; inhibition at 1 µM ([2]; Table 1b): 77%; inhibition at 1 µM ([2]; Table 1d): 85%; inhibition at 5 µM ([2]; 5 μM compound, Table 1b): 100%; inhibition at 5 µM ([2]; 5 μM compound, Table 1d): 90%; inhibition at 10 µM ([2]; Table 1d): 98%; inhibition at 25 µM ([2]; 25 μM compound, Table 1b): 106%; inhibition at 50 µM ([2]; 50 μM compound, Table 1b): 103%; pIC50 [2, 9]: 6.30; pIC50 [2, 10]: 8.00
– | – | – | – | – | -11% | -16% | -13% | 11% | 24% | -17% | 51% | 20% | 27% | 63% | 76% | < 5.00 | 19% | -2% | 26% | CCCCCS(=O)(=O)Cc1nc2c(nc1CS(=O)(=O)CCCCC)C(=O)c1ccccc1C2=O [VIN6077] | inhibition at 0.5 µM ([2]; 0.5 μM compound, Table 1d): 26%; inhibition at 1 µM ([2]; Table 1b): 54%; inhibition at 1 µM ([2]; Table 1d): 44%; inhibition at 5 µM ([2]; 5 μM compound, Table 1b): 94%; inhibition at 5 µM ([2]; 5 μM compound, Table 1d): 100%; inhibition at 10 µM ([2]; Table 1d): 91%; inhibition at 25 µM ([2]; 25 μM compound, Table 1b): 101%; inhibition at 50 µM ([2]; 50 μM compound, Table 1b): 100%; pIC50 [2, 9]: 5.92
